Measurements from ChEMBL document CHEMBL1144518, “1-Methylpyridinium-4-(4-phenylmethanethiosulfonate) iodide, MTS-MPP+, a novel scanning cysteine accessibility method (SCAM) reagent for monoamine transporter studies” (Bioorg Med Chem, 2007).
The source made the active and inactive calls. The rule behind the calls is not given here.

Columns and labels:
[1] = target: Sodium-dependent serotonin transporter (Homo sapiens, UniProt P31645, C109A); experiment: Inhibition of [3H]5-HT uptake at human SERT C109A mutant transfected in HEK cells; assay type: cell-based, HEK293
[2] = target: Sodium-dependent serotonin transporter (Homo sapiens, UniProt P31645, G498C); experiment: Decrease in [3H]5-HT uptake at human SERT G498C mutant transfected in HEK293 cells; assay type: cell-based
[3] = test system: Sodium-dependent serotonin transporter (Homo sapiens), P31645 [C109A]; experiment: Blockade of leak current of human SERT C109A mutant expressed in Xenopus laevis oocytes assessed as outward current at 30 uM; assay type: cell-based; conditions: Oocyte
[4] = test system: Sodium-dependent serotonin transporter (Homo sapiens), P31645 [C109A]; experiment: Activation of inward current at human SERT C109A mutant expressed in Xenopus laevis oocytes; assay type: cell-based; conditions: Oocyte

SMILES: C[n+]1ccc(-c2ccccc2)cc1
- Ki [1]: 48 µM

SMILES: C[N+](C)(C)CCSS(C)(=O)=O
- EC50 [2]: 3.16 µM

SMILES: C[n+]1ccc(-c2ccc(SS(C)(=O)=O)cc2)cc1
- Ki [1]: 1300 µM
- EC50 [2]: 3.98 µM
- Activity [3]: Active
- Activity [4]: inactive
